According to patent US6432683B1, “Preparation of 2-aminomuconate from 2-aminophenol by coupled enzymatic dioxygenation and dehydrogenation reactions” (The United States of America as represented by the …, priority 2000, dated 2002):

half-life (buffer, pH 9.5): 20 h
amount lost on freezing and thawing (pH 8.0 in potassium phosphate buffer): 50%
decomposition on freezing and thawing (pH 9.5 (Tris-HCl)): about 2%
amount lost on storage (solution stored on ice for 50 h, 0.34 mM): 30%
Compound: NC(=CC=CC(=O)O)C(=O)O [2-Aminomuconate, 2-aminohexa-2,4-diene-1,6-dioate]
